Source: patent publication US20130251730A1, “Compounds and Mixtures Influencing Inflammatory States” (SYMRISE AG, priority 2012, published 2013)
Marks after values point to notes of the source that are not given here.

Assays:
[1] = system: IL-6 release by human gingival fibroblastic cells (HGF-1); test: Release of IL-6 by HGF-1 cells after stimulation with 10 μg/ml PG-LPS (magnetic bead assay); type: cell-based
Procedure: Human gingival fibroblastic cells (HGF-1) were sowed out in 24-well plates with 15,000 cells per well and cultivated for 3 to 5 days. DNEM containing 10% FBS, 1% penicillin/streptomycin and 4% glutamine was used as the medium. For determination of the anti-inflammatory action the cells were incubated with 10 μg/ml PG-LPS for 6 and 9 hrs. Subsequently, the release of IL-6 and IL-8 per magnetic bead was determined (Procarta, Affimetrix) using a MAGPIX equipment (Merck-Millipore) and analysed using the Milliplex software (Merck Millipore). In each case 4 samples with two technical replicates were measured. In addition to this control the cells were co-incubated with • (a) 10 μg/ml PG-LPS and also with • (b) solutions of the Herba Santa extract according to Example 1 (HS, containing 21.7% HED, […]); • (c) the flavonoid fraction (“FF”) obtained as a by-product according to Example 4 (containg 41.5% HED, […]); • (d) the extract rich in erionic acid (“ES”) according to Example 4 or isolated erionic acid B (according to Example 2) and • (e) erionic acid C according to Example 3 (each 0,1 μM, 1 μM and 10 μM).
(§1) After incubation the cell culture medium was transferred into an Eppendorf reaction vessel and at 4° C. for 10 min subjected to centrifugation (1000×g) in order to separate the cell depris. The upper layer was stored at −80° C. until the analysis started. The results of the release of IL-6 and […]

[2] = system: IL-8 release by human gingival fibroblastic cells (HGF-1); test: Release of IL-8 by HGF-1 cells after stimulation with 10 μg/ml PG-LPS (magnetic bead assay); type: cell-based
Procedure: Human gingival fibroblastic cells (HGF-1) were sowed out in 24-well plates with 15,000 cells per well and cultivated for 3 to 5 days. DNEM containing 10% FBS, 1% penicillin/streptomycin and 4% glutamine was used as the medium. For determination of the anti-inflammatory action the cells were incubated with 10 μg/ml PG-LPS for 6 and 9 hrs. Subsequently, the release of IL-6 and IL-8 per magnetic bead was determined (Procarta, Affimetrix) using a MAGPIX equipment (Merck-Millipore) and analysed using the Milliplex software (Merck Millipore). In each case 4 samples with two technical replicates were measured. In addition to this control the cells were co-incubated with • (a) 10 μg/ml PG-LPS and also with • (b) solutions of the Herba Santa extract according to Example 1 (HS, containing 21.7% HED, 0.1 μM, 1 μM and 10 μM calculated on HED); • (c) the flavonoid fraction (“FF”) obtained as a by-product according to Example 4 (containg 41.5% HED, 0,1 μM, 1 μM and 10 μM calculated on HED); • (d) the extract rich in erionic acid (“ES”) according to Example 4 or isolated erionic acid B (according to Example 2) and • (e) erionic acid C according to Example 3 (each 0,1 μM, 1 μM and 10 μM).
as §1

[3] = 10 μg/ml PG-LPS + 1 μg/ml test substance, 6 h
[4] = 10 μg/ml PG-LPS + 1 μg/ml test substance, 9 h
[5] = 10 μg/ml PG-LPS + 10 μg/ml test substance, 6 h
[6] = 10 μg/ml PG-LPS + 10 μg/ml test substance, 9 h
[7] = 10 μg/ml PG-LPS + 100 μg/ml test substance, 6 h
[8] = 10 μg/ml PG-LPS + 100 μg/ml test substance, 9 h
[9] = co-incubation with 10 μg/ml PG-LPS, 6 and 9 hrs, 0.1, 1 and 10 μM

## CC(CCc1cc(C(=O)O)cc2c1OC(C)(C)C(O)C2)C(=O)/C=C/C(C)(C)O (centres unmarked) [Erionic acid B, 3-hydroxy-8-((E)-7-hydroxy-3,7-dimethyl-4-oxo-oct-5-enyl)-2,2-dimethyl-chroman-6-carboxylic acid]
[1]; [3]
  IL-6 T/C [%]: 61.93* %
[1]; [4]
  IL-6 T/C [%]: 77.51* %
[1]; [5]
  IL-6 T/C [%]: 102.30%
[1]; [6]
  IL-6 T/C [%]: 61.47*** %
[1]; [7]
  IL-6 T/C [%]: 41.30** %
[1]; [8]
  IL-6 T/C [%]: 102.74%
[1]; [9]
  release of IL-6: significant reduction
[2]; [3]
  IL-8 T/C [%]: 79.91%
[2]; [4]
  IL-8 T/C [%]: 77.33%
[2]; [5]
  IL-8 T/C [%]: 134.54** %
[2]; [6]
  IL-8 T/C [%]: 71.35%
[2]; [7]
  IL-8 T/C [%]: 46.30** %
[2]; [8]
  IL-8 T/C [%]: 116.34%
[2]; [9]
  release of IL-8: significant reduction
